What is called IC50 is the concentration that inhibits the measured activity by half.

Like-named read-outs stand apart in the source and are kept apart here.

The target in experiment [1] is T1, Recombinant STAT3 protein (STAT3 (G127-I722)) (Homo sapiens, UniProt P40763).
T1 construct: Recombinant STAT3 protein (STAT3 (G127-I722))
Briefly: STAT3 Fluorescence Polarization (FP) Assay. It counts as binding. To be noted: probe 5-FAM-GpYLPQTV-NH2 2 nM, 45-minute incubation. In outline:
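Displacement of a fluorescent phosphotyrosine peptide (5-FAM-GpYLPQTV-NH2, 2 nM) from 25 nM recombinant STAT3 G127-I722 was monitored by FP after 45 min at room temperature.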
(In general: In fluorescence polarisation assays a small probe gives low polarisation when free and higher when bound to something large.)

The target of experiment [2] is T2, Recombinant STAT6 protein (STAT6 (W123-T658)) (Homo sapiens, UniProt P42226).
T2 construct: Recombinant STAT6 protein (STAT6 (W123-T658))
T2 sequence (P42226 123-658): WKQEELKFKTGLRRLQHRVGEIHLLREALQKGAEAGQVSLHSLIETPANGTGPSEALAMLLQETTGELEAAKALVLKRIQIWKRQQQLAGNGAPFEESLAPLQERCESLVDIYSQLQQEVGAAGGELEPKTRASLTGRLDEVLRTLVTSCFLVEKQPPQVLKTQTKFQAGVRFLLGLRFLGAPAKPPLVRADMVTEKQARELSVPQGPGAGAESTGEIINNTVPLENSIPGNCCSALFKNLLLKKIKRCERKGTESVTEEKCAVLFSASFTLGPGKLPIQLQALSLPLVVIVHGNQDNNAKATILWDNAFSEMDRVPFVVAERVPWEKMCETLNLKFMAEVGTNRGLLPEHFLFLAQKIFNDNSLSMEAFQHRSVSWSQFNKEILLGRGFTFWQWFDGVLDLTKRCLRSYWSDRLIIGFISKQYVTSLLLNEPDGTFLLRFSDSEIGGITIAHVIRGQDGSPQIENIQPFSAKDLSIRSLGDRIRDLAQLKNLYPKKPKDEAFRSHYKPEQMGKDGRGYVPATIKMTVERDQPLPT
Briefly: STAT6 Fluorescence Polarization (FP) Assay. It counts as binding. As to conditions: 45-minute incubation. The procedure, abridged: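 Displacement of a fluorescent phosphotyrosine peptide (2 nM) from 250 nM STAT6 (W123-T658) is measured by polarization after a 45-minute room-temperature incubation. Compounds are titrated serially at 1% DMSO, and IC50 values derive from regression of mP on log concentration.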

[3] abbreviates: STAT3 25 nM, read-out: STAT3 (FP assay IC50).
Where [4] appears, read: STAT3 (G127-I722) 25 nM, read-out: STAT3 (FP assay IC50 class).
Where [5] appears, read: STAT6 (W123-T658) 250 nM, probe 5-FAM-Ap[…]-NH2 2 nM, read-out: STAT6 (FP assay IC50 class).
Where [6] appears, read: STAT6 250 nM, probe 5-FAM-Ap[…]-NH2 2 nM, read-out: STAT6 (FP assay IC50).

T1 sequence (P40763 127-722): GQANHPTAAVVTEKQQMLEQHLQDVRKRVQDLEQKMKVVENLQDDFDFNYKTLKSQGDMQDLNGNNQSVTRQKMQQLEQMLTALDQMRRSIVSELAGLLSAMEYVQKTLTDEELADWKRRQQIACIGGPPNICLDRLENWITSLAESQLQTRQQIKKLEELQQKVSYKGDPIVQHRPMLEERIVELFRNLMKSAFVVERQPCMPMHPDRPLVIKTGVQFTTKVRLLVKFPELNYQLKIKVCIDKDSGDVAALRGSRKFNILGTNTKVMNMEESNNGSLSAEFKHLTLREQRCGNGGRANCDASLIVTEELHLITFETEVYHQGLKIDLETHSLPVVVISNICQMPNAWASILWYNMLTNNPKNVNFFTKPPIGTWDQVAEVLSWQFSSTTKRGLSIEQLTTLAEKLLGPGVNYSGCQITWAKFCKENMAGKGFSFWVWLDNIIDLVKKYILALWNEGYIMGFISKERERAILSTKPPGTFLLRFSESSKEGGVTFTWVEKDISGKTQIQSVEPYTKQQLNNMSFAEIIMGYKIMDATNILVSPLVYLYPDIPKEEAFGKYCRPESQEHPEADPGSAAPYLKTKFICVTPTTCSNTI

Take `CC1CCC[C@H](NC(=O)c2cc3cc(C(F)(F)P(=O)(O)O)ccc3s2)C(=O)N2[C@@H]1CC[C@H]2C(=O)N1C[C@H](c2cc[nH]c(=O)c2)[C@@H](C#N)C1` (single isomer, unassigned) [Compound 104, ((2-(((3S,6S,10aR)-3-((3R,4S or 3S,4R)-3-cyano-4-(2-oxo-1,2-dihydropyridin-4-yl)pyrrolidine-1-carbonyl)-10-methyl-5-oxodecahydropyrrolo [1,2-a]azocin-6-yl)carbamoyl)benzo[b]thiophen-5-yl)difluoromethyl) phosphonic acid]: the concentration for half-maximal inhibition (IC50) is 0.1 to 1 µM in experiment [1] (setting [3]) and 0.3 to 3 µM in experiment [2] (STAT6 250 nM, probe 5-FAM-ApYKPFQDLI-NH2 2 nM, read-out: STAT6 (FP assay IC50)).

`COc1ccncc1C1CN(C(=O)[C@@H]2CC[C@@H]3C[C@H](C)C[C@H](NC(=O)c4cc5cc([C@H](F)P(=O)(O)O)ccc5s4)C(=O)N32)C1` [Compound 766, ((R)-fluoro(2-(((3S,6S,8R,9aR)-3-(3-(4-methoxypyridin-3-yl)azetidine-1-carbonyl)-8-methyl-5-oxooctahydro-1H-pyrrolo[1,2-a]azepin-6-yl)carbamoyl)benzo [b]thiophen-5-yl)methyl) phosphonic acid]: the IC50 in experiment [1] (setting [4]) was under 0.1 µM; in experiment [2] (setting [5]), 3 to 30 µM.

Consider `O=C(N[C@H]1CCC[C@H]2CC[C@@H](C(=O)N3CC(c4cnccc4OC4COC4)C3)N2C1=O)c1cc2cc(C(F)P(=O)(O)O)ccc2s1` (stereo partly drawn) [Compound 598, (fluoro(2-(((3S,6S,9aS)-3-(3-(4-(oxetan-3-yloxy)pyridin-3-yl)azetidine-1-carbonyl)-5-oxooctahydro-1H-pyrrolo[1,2-a]azepin-6-yl)carbamoyl)benzo [b]thiophen-5-yl)methyl) phosphonic acid], for which the values for the 50% inhibitory concentration (IC50) in experiment [1] (setting [4]) and in experiment [2] (setting [5]) were under 0.1 µM and 3 to 30 µM, respectively.

As to `Cc1ccc(C#N)nc1C1CN(C(=O)[C@@H]2CC[C@@H]3CCC[C@H](NC(=O)c4cc5cc(C(F)(F)P(=O)(O)O)ccc5s4)C(=O)N32)C1` [Compound 820, ((2-(((3S,6S,9aS)-3-(3-(6-cyano-3-methylpyridin-2-yl)azetidine-1-carbonyl)-5-oxooctahydro-1H-pyrrolo[1,2-a]azepin-6-yl)carbamoyl)benzo [b]thiophen-5-yl)difluoromethyl) phosphonic acid], the IC50 in experiment [1] (setting [4]) fell in the range of 0.1 to 1 µM; in experiment [2] (setting [5]), 3 to 30 µM.

In the case of `NC(=O)N1CC[C@@H](NC(=O)[C@@H]2CC[C@@H]3CCCC[C@H](NC(=O)c4cc5cc(C(F)P(=O)(O)O)ccc5s4)C(=O)N32)C1` (stereo partly drawn) [Compound 532, ((2-(((3S,6S,10aS)-3-(((R)-1-carbamoylpyrrolidin-3-yl)carbamoyl)-5-oxodecahydropyrrolo[1,2-a]azocin-6-yl)carbamoyl)benzo[b]thiophen-5-yl)fluoromethyl)phosphonic acid], the IC50 in experiment [1] (setting [4]) was under 0.1 µM; in experiment [2] (setting [5]), 3 to 30 µM.

With `CS(=N)(=O)C1CN(C(=O)[C@@H]2CC[C@@H]3CCCC[C@H](NC(=O)c4cc5cc(C(F)(F)P(=O)(O)O)ccc5s4)C(=O)N32)C1` (stereo partly drawn) [Compound 73, (difluoro(2-(((3S,6S,10aS)-3-(3-(S-methylsulfonimidoyl)azetidine-1-carbonyl)-5-oxodecahydropyrrolo [1,2-a]azocin-6-yl)carbamoyl)benzo[b]thiophen-5-yl)methyl) phosphonic acid], the 50% inhibitory concentration (IC50) in experiment [1] (setting [3]) fell in the range of 0.1 to 1 µM; in experiment [2] (setting [6]), 3 to 30 µM.

On to `CC(C)n1cc(N(C)C(=O)[C@@H]2CC[C@@H]3CCCC[C@H](NC(=O)c4cc5cc(C(F)(F)P(=O)(O)O)ccc5s4)C(=O)N32)cn1` [Compound 793, (difluoro(2-(((3S,6S,10aS)-3-((1-isopropyl-1H-pyrazol-4-yl)(methyl)carbamoyl)-5-oxodecahydropyrrolo[1,2-a]azocin-6-yl)carbamoyl)benzo [b]thiophen-5-yl)methyl) phosphonic acid], for which the results for the IC50 in experiment [1] (setting [4]) and in experiment [2] (setting [5]) were 1 to 10 µM and 3 to 30 µM, respectively.

As to `O=C(N[C@H]1CCC[C@H]2CC[C@@H](C(=O)N3CCC(c4ncncc4F)CC3)N2C1=O)c1cc2cc(C(F)P(=O)(O)O)ccc2s1` (stereo partly drawn) [Compound 582, (fluoro(2-(((3S,6S,9aS)-3-(4-(5-fluoropyrimidin-4-yl)piperidine-1-carbonyl)-5-oxooctahydro-1H-pyrrolo[1,2-a]azepin-6-yl)carbamoyl)benzo[b]thiophen-5-yl)methyl)phosphonic acid], the IC50 in experiment [1] (setting [4]) was in the range of 1 to 10 µM; in experiment [2] (setting [5]), 3 to 30 µM.

For `C[C@@]1(O)CC[C@H]2CC[C@@H](C(=O)N3C[C@H](c4ccccc4)[C@@H](C#N)C3)N2C(=O)[C@@H](NC(=O)c2cc3cc(C(F)(F)P(=O)(O)O)ccc3s2)C1` (single isomer, unassigned) [Compound 14, ((2-(((3S,6S,8R,10aR)-3-((3R,4S or 3S,4R)-3-cyano-4-phenylpyrrolidine-1-carbonyl)-8-hydroxy-8-methyl-5-oxodecahydropyrrolo [1,2-a]azocin-6-yl)carbamoyl)benzo[b]thiophen-5-yl)difluoromethyl) phosphonic acid], the IC50 in experiment [1] (setting [3]) is 0.1 to 1 µM; in experiment [2] (setting [6]) it was at most 0.3 µM.

Turning to `Cn1ccc(C2(F)CCN(C(=O)[C@@H]3CC[C@@H]4CCCC[C@H](NC(=O)c5ccc6ccc(C(F)P(=O)(O)O)cc6c5)C(=O)N43)C2)cc1=O` (stereo partly drawn) [Compound 903, (fluoro(7-(((3S,6S,10aS)-3-(3-fluoro-3-(1-methyl-2-oxo-1,2-dihydropyridin-4-yl)pyrrolidine-1-carbonyl)-5-oxodecahydropyrrolo [1,2-a]azocin-6-yl)carbamoyl)naphthalen-2-yl)methyl) phosphonic acid], the values for the IC50 in experiment [1] (setting [4]) and in experiment [2] (setting [5]) were 1 to 10 µM and 0.3 to 3 µM, respectively.

As for `CCOC1(c2nncn2C)CN(C(=O)[C@@H]2CC[C@@H]3CCC[C@H](NC(=O)c4cc5cc(C(F)(F)P(=O)(O)O)ccc5s4)C(=O)N32)C1` [Compound 808, ((2-(((3S,6S,9aS)-3-(3-ethoxy-3-(4-methyl-4H-1,2,4-triazol-3-yl)azetidine-1-carbonyl)-5-oxooctahydro-1H-pyrrolo[1,2-a]azepin-6-yl)carbamoyl)benzo [b]thiophen-5-yl)difluoromethyl) phosphonic acid], the IC50 in experiment [1] (setting [4]) was 0.1 to 1 µM; in experiment [2] (setting [5]), 3 to 30 µM.

As for `COCCN(C)c1ccncc1C1CN(C(=O)[C@@H]2CC[C@@H]3CCC[C@H](NC(=O)c4cc5cc([C@@H](F)P(=O)(O)O)ccc5s4)C(=O)N32)C1` [Compound 855, ((S)-fluoro(2-(((3S,6S,9aS)-3-(3-(4-((2-methoxyethyl) (methyl)amino)pyridin-3-yl)azetidine-1-carbonyl)-5-oxooctahydro-1H-pyrrolo[1,2-a]azepin-6-yl)carbamoyl)benzo [b]thiophen-5-yl)methyl) phosphonic acid], the IC50 in experiment [1] (setting [4]) is under 0.1 µM; in experiment [2] (setting [5]) it was 3 to 30 µM.

For `O=C(N[C@H]1CCCC[C@H]2CC[C@@H](C(=O)N3C(=O)N(c4cccnc4)C(=O)C34CC4)N2C1=O)c1cc2cc(C(F)P(=O)(O)O)ccc2s1` (stereo partly drawn) [Compound 900, ((2-(((3S,6S,10aS)-3-(5,7-dioxo-6-(pyridin-3-yl)-4,6-diazaspiro[2.4]heptane-4-carbonyl)-5-oxodecahydropyrrolo [1,2-a]azocin-6-yl)carbamoyl)benzo [b]thiophen-5-yl)fluoromethyl) phosphonic acid], the IC50 in experiment [1] (setting [4]) is 1 to 10 µM; in experiment [2] (setting [5]), at most 0.3 µM.

The record behind these values is patent US20250215029A1 (Recludix Pharma, Inc., priority 2022, published 2025).
